Legend:
MCF7 = assay: Antiproliferative activity against human MCF7 cells assessed as inhibition of cell growth measured after 6 days by cell titre glo luminescence assay; settings: MCF7, 144 h
[1] = Cmax in Sprague-Dawley rat at 10 mg/kg, po measured up to 24 hrs by LC/MS/MS analysis; assay type: ADME, organism-based; set-up: time < 24 hrs, dose 10 mg/kg, route po; settings: in vivo
[2] = AUC (0 to t) in Sprague-Dawley rat at 10 mg/kg, po measured up to 24 hrs by LC/MS/MS analysis; assay type: ADME, organism-based; set-up: time < 24 hrs, dose 10 mg/kg, route po; settings: in vivo
[3] = molecular target: Voltage-gated inwardly rectifying potassium channel KCNH2 (Homo sapiens, UniProt Q12809); assay: Inhibition of human ERG potassium channel expressed in CHO cells by patch-clamp assay; assay type: toxicity, cell-based
Sequence of Voltage-gated inwardly rectifying potassium channel KCNH2 (Q12809 whole entry, the tested form may be a part): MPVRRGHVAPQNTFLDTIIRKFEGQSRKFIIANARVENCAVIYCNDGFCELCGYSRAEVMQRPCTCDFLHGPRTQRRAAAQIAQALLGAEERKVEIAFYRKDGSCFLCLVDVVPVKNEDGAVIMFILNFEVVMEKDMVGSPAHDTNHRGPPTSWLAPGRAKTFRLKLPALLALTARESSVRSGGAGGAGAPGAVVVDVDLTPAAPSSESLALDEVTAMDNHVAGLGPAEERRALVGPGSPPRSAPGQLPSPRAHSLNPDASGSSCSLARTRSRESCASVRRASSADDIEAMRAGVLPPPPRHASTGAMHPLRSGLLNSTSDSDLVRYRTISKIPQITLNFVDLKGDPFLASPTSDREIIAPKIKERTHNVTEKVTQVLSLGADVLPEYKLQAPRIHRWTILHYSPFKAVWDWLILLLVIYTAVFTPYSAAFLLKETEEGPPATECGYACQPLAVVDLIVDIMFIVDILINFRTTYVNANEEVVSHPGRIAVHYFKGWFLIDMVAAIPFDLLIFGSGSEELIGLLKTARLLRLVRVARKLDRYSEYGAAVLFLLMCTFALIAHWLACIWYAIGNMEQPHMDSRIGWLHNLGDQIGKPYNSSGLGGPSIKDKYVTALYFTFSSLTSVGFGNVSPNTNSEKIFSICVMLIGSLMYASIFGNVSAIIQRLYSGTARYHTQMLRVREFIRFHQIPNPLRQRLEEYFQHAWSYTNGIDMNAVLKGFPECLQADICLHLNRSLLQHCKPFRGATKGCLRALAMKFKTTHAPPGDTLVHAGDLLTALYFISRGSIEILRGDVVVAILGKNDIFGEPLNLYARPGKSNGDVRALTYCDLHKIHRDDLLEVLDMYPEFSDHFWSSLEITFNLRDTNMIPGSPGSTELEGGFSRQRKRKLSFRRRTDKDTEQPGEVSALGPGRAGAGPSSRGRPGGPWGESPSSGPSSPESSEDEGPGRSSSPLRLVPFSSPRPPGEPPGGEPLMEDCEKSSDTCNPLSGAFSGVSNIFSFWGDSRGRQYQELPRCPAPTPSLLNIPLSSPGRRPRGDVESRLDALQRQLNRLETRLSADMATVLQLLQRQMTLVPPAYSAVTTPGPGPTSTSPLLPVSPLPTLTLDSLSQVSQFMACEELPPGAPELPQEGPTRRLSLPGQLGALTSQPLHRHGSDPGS

Estrogen receptor [4] = molecular target: T1, Estrogen receptor (Homo sapiens, UniProt P03372); assay: Antagonist activity at ERalpha expressed in HEK293/Gal4 cells incubated for 24 hrs in presence of estradiol by luciferase reporter gene assay; assay type: cell-based
T1 sequence (P03372 whole entry): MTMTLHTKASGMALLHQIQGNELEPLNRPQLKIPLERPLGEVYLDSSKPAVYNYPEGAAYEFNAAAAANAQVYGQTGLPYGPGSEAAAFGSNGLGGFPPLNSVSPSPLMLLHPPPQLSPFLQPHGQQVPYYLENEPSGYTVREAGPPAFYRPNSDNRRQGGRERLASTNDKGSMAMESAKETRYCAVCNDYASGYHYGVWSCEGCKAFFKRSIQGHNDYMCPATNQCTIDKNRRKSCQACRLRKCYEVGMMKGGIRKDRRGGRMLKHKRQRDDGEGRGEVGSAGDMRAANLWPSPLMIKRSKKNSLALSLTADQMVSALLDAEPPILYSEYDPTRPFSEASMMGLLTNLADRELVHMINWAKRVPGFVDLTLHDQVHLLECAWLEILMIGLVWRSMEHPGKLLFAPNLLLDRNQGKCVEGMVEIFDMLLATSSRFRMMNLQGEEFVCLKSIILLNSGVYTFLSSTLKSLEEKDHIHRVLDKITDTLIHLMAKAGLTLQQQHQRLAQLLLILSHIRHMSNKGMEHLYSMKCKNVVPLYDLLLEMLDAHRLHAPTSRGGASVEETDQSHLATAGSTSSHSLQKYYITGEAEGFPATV

Estrogen receptor [5] = molecular target: T1, Estrogen receptor; assay: Induction of ERalpha degradation in human MCF7 cells incubated for 24 hrs by Western blot analysis; assay type: cell-based
Estrogen receptor beta = Estrogen receptor beta (Homo sapiens, UniProt Q92731); assay: Antagonist activity at ERbeta expressed in HEK293/Gal4 cells incubated for 24 hrs in presence of di-arylpropionitrile by luciferase reporter gene assay
Sequence of Estrogen receptor beta (Q92731 whole entry, the tested form may be a part): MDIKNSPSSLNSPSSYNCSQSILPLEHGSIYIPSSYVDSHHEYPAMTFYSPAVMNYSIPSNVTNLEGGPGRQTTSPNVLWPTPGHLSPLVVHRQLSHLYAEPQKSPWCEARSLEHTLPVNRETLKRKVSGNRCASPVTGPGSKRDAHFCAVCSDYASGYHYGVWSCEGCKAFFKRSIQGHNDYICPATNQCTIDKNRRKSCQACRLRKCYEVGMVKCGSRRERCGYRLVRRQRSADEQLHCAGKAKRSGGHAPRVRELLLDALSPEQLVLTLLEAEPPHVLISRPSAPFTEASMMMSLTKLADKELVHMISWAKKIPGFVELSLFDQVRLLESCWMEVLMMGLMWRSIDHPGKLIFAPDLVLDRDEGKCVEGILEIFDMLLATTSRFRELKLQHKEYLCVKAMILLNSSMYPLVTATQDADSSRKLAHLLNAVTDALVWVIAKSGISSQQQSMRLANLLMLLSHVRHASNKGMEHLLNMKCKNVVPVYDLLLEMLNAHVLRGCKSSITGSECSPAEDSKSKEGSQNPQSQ

Structure (SMILES) | IC50 (MCF7) [nM] | EC50 (Estrogen receptor [5]) [nM] | other results
Cc1cc(C(F)(F)F)ncc1-c1sc2c(ccc3[nH]ncc32)c1Oc1ccc(OCCN2CC(CF)C2)cc1 | 623 |  | 
CC(F)(F)c1cc(F)ccc1-c1sc2c(ccc3[nH]ncc32)c1Oc1ccc(NC2CN(CCCF)C2)c(C(F)(F)F)c1 | 6.2 |  | 
CC(F)(F)c1cc(F)c(F)cc1-c1sc2c(ccc3[nH]ncc32)c1Oc1ccc(OC2CN(CCCF)C2)c(F)c1 | 2.8 | 3.9 | Cmax [1]: 132 ng/mL; AUC(0-t) at 24 h [2]: 1280 ng·h/mL; IC50 [3]: > 40000 nM; IC50 (Estrogen receptor [4]): 5.3 nM
CC(F)(F)c1cc(F)ccc1-c1sc2cc(B(O)O)ccc2c1Oc1ccc(OCCN2CC(CC#N)C2)cc1 | 2.7 |  | 
CC(F)(F)c1cc(F)ccc1-c1sc2c(ccc3[nH]ncc32)c1Oc1ccc(OC2CN(CCCF)C2)c(F)c1 | 0.8 | 1.3 | IC50 (Estrogen receptor [4]): 1 nM
CC(F)(F)c1cc(F)ccc1-c1sc2c(ccc3[nH]ncc32)c1Oc1ccc(CCN2CC(CF)C2)cc1 | 14.7 |  | 
COc1cc(Oc2c(-c3ccc(F)cc3CC(F)(F)F)sc3c2ccc2[nH]ncc23)ccc1NC1CN(CCCF)C1 | 1.7 | 2.2 | IC50 (Estrogen receptor [4]): 1.1 nM
CC(F)(F)c1cc(F)ccc1-c1sc2cc(B(O)O)ccc2c1Oc1ccc(OCCN2CCC(F)CC2)cc1 | 19.4 |  | 
CC(F)(F)c1cc(F)ccc1-c1sc2c(ccc3[nH]ncc32)c1Oc1ccc(NC2CN(CCCF)C2)c(F)c1 | 0.8 | 1.3 | IC50 [3]: 27500 nM; IC50 (Estrogen receptor [4]): 1.1 nM
CC(F)(F)c1cc(F)ccc1-c1sc2cc(B(O)O)ccc2c1Oc1ccc(OCCN2CC(CF)C2)cc1 | 1.9 | 1.2 | 
CC(F)(F)c1cc(F)ccc1-c1sc2c(ccc3[nH]ncc32)c1Oc1ccc(OCCN2CC(CF)C2)cc1 | 1.1 | 0.9 | 
CC(F)(F)c1cc(F)ccc1-c1sc2c(ccc3[nH]ncc32)c1Oc1ccc(S(=O)(=O)CCN2CC(CF)C2)cc1 | 5.9 | > 1000 | 
CC(F)(F)c1cc(Cl)ccc1-c1sc2c(ccc3[nH]ncc32)c1Oc1ccc(OC[C@H]2CCCN2CCCF)cc1 | 8.3 | > 1000 | 
CC(c1cc(F)ccc1-c1sc2c(ccc3[nH]ncc32)c1Oc1ccc(OC2CN(CCCF)C2)cc1)C(F)(F)F (centres undefined) | 2.2 | 2.5 | 
CC(F)(F)c1cc(Cl)ccc1-c1sc2c(ccc3[nH]ncc32)c1Oc1ccc(OC2CN(CCCC#N)C2)cc1 | 81.4 |  | 
Oc1cccc(-c2sc3c(ccc4[nH]ncc43)c2Oc2ccc(OCCN3CC(CF)C3)cc2)c1 | > 1000 |  | 
CC(F)(F)c1cc(Cl)ccc1-c1sc2cc(C(=O)O)ccc2c1Oc1ccc(OC2CN(CCCF)C2)cc1 | 34.7 | 3.9 | 
CC(F)(F)c1cc(F)c(F)cc1-c1sc2c(ccc3[nH]ncc32)c1Oc1ccc(NC2CN(CCCF)C2)cc1 |  |  | IC50 [3]: 7400 nM
CC(F)(F)c1cc(F)ccc1-c1sc2c(ccc3[nH]ncc32)c1Oc1ccc(OCCN2CC(CF)C2)cc1F | 3.3 |  | 

Structure (SMILES) | IC50 (MCF7) [nM] | EC50 (Estrogen receptor [5]) [nM] | other results
CC(F)(F)c1cc(Cl)ccc1-c1sc2c(ccc3[nH]ncc32)c1Oc1ccc(N[C@@H]2CCN(CCCF)C2)cc1 | 0.6 | 1 | 
Cc1cc(F)cc(C)c1-c1sc2c(ccc3[nH]ncc32)c1Oc1ccc(OCCN2CC(CF)C2)cc1 | 27.3 |  | 
FCCCN1CC(Nc2ccc(Oc3c(-c4ccc(F)cc4CC(F)(F)F)sc4c3ccc3[nH]ncc34)cc2)C1 | 0.8 | 2.2 | IC50 (Estrogen receptor [4]): 1.3 nM
CC(C)(c1cc(F)ccc1-c1sc2c(ccc3[nH]ncc32)c1Oc1ccc(NC2CN(CCCF)C2)cc1)C(F)(F)F | 5.1 |  | 
CC(F)(F)c1cc(F)ccc1-c1sc2cc3[nH]ncc3cc2c1Oc1ccc(/C=C/C(=O)O)cc1 | 483 |  | 
CC(F)(F)c1cc(F)ccc1-c1sc2cc(B(O)O)ccc2c1Oc1ccc(OCCN2CC[C@@H](CF)C2)cc1 | 1.5 | 2.2 | 
CC(F)(F)c1cc(F)ccc1-c1sc2c(ccc3[nH]ncc32)c1-c1ccc(OCCN2CC(CF)C2)cc1 | > 1000 |  | 
FCCCN1CC(Oc2ccc(Oc3c(-c4ccc(F)cc4CC(F)(F)F)sc4c3ccc3[nH]ncc34)cc2F)C1 |  |  | IC50 [3]: > 40000 nM
CC(F)(F)c1cc(Cl)ccc1-c1sc2cc(C(=O)O)ccc2c1Oc1ccc(NC2CN(CCCF)C2)cc1 | 5.9 | 13.1 | 
CC(F)(F)c1cc(Cl)ccc1-c1sc2c(ccc3[nH]ncc32)c1Oc1ccc(O[C@@H]2CCN(CCCF)C2)cc1 | 2.6 | 0.7 | 
FCC1CN(CCOc2ccc(Oc3c(-c4ccc(F)cc4C4CC4)sc4c3ccc3[nH]ncc34)cc2)C1 | 8.8 |  | 
CC(F)(F)c1cc(F)ccc1-c1sc2c(ccc3[nH]ncc32)c1Oc1ccc(OC2CN(CCCF)C2)cc1F | 7.8 |  | 
CC(F)(F)c1cc(F)ccc1-c1sc2c(ccc3[nH]ncc32)c1Oc1c(F)cc(OCCN2CC(CF)C2)cc1F | 15.1 |  | 
Cc1cc(Cl)cc(C)c1-c1sc2c(ccc3[nH]ncc32)c1Oc1ccc(OCCN2CC(CF)C2)cc1 | 29.5 |  | 
COc1cc(Oc2c(-c3ccc(F)cc3C(C)(C)F)sc3c2ccc2[nH]ncc23)ccc1OC1CN(CCCF)C1 | 0.5 | 1.4 | Cmax [1]: 47 ng/mL; AUC(0-t) at 24 h [2]: 264 ng·h/mL; IC50 [3]: > 40000 nM; IC50 (Estrogen receptor [4]): 0.8 nM
COc1cc(Oc2c(-c3ccc(F)cc3C(C)(F)F)sc3c2ccc2[nH]ncc23)ccc1NC1CN(CCCF)C1 |  |  | IC50 [3]: 11500 nM
CC(F)(F)c1cc(F)ccc1-c1sc2c(ccc3[nH]ncc32)c1Oc1ccc(OCCN2CC(CC#N)C2)cc1 | 2.4 | 0.4 | 
CC(F)(F)c1cc(F)ccc1-c1sc2c(ccc3[nH]ncc32)c1Oc1ccc(COCCN2CC(CF)C2)cc1 | 4.7 | > 1000 | 
CC(F)(F)c1cc(F)ccc1-c1sc2c(ccc3[nH]ncc32)c1Oc1ccc(OCCN2CC3C(C2)C3(F)F)cc1 (centres undefined) | 7.6 | > 1000 | 

Structure (SMILES) | IC50 (MCF7) [nM] | EC50 (Estrogen receptor [5]) [nM] | other results
CC(F)(F)c1cc(F)ccc1-c1sc2c(ccc3[nH]ncc32)c1Oc1ccc(/C=C/C(=O)O)cc1 | 26.6 |  | 
CC(C)(F)c1cc(F)ccc1-c1sc2c(ccc3[nH]ncc32)c1Oc1ccc(NC2CN(CCCF)C2)cc1 |  |  | IC50 [3]: 6200 nM
CC(F)(F)c1cc(F)ccc1-c1sc2c(ccc3[nH]ncc32)c1Oc1ccc(/C=C/CN2CC(CF)C2)cc1 | 7.9 |  | 
COc1cc(Oc2c(-c3cc(F)c(F)cc3C(C)(F)F)sc3c2ccc2[nH]ncc23)ccc1NC1CN(CCCF)C1 | 1.7 | 2.6 | IC50 [3]: 15600 nM; IC50 (Estrogen receptor [4]): 2.5 nM
CC(C)(F)c1cc(F)ccc1-c1sc2c(ccc3[nH]ncc32)c1Oc1ccc(OC2CN(CCCF)C2)c(F)c1 |  |  | IC50 [3]: > 40000 nM
COc1cc(Oc2c(-c3ccc(F)cc3C(C)(F)F)sc3c2ccc2[nH]ncc23)ccc1OC1CN(CCCF)C1 | 0.9 | 0.4 | IC50 [3]: > 40000 nM; IC50 (Estrogen receptor [4]): 0.6 nM
CC(F)(F)c1cc(Cl)ccc1-c1sc2cc(C(=O)O)ccc2c1Oc1ccc(O[C@@H]2CCN(CCCF)C2)cc1 | 4.2 | 1 | 
CC(F)(F)c1cc(F)ccc1-c1sc2cc(B(O)O)ccc2c1Oc1ccc(/C=C/C(=O)O)cc1 | 23.9 |  | 
FCC1CN(CCOc2ccc(Oc3c(-c4ccc(C(F)(F)F)cc4F)sc4c3ccc3[nH]ncc34)cc2)C1 | 148 |  | 
O=C(O)c1ccc2c(c1)CCCC(c1ccc(Cl)cc1Cl)=C2c1ccc(O[C@H]2CCN(CCCF)C2)cc1 [AMCENESTRANT] | 9.1 |  | IC50 (Estrogen receptor beta): 8.6 nM
FCC1CN(CCOc2ccc(Oc3c(-c4ccc(OC(F)(F)F)cc4F)sc4c3ccc3[nH]ncc34)cc2)C1 | 38.5 |  | 
CC(F)(F)c1cc(Cl)ccc1-c1sc2cc(C(=O)O)ccc2c1Oc1ccc(OCCN2CC(CF)C2)cc1 | 4.4 | 2.6 | 
CC(F)(F)c1cc(Cl)ccc1-c1sc2c(ccc3[nH]ncc32)c1Oc1ccc(S(=O)(=O)C2CN(CCCF)C2)cc1 | 33.9 |  | 
FCCCN1CC(Oc2ccc(Oc3c(-c4ccc(F)cc4C4(F)CC4)sc4c3ccc3[nH]ncc34)cc2)C1 | 5.3 |  | 
COc1cc(Oc2c(-c3cc(F)c(F)cc3C(C)(F)F)sc3c2ccc2[nH]ncc23)ccc1OC1CN(CCCF)C1 | 1.2 | 3 | IC50 (Estrogen receptor [4]): 1.4 nM
CC(F)(F)c1cc(F)c(F)cc1-c1sc2c(ccc3[nH]ncc32)c1Oc1ccc(OC2CN(CCCF)C2)cc1 | 1.6 | 3.4 | IC50 (Estrogen receptor [4]): 2.5 nM
COc1cc(Oc2c(-c3ccc(F)cc3CC(F)(F)F)sc3c2ccc2[nH]ncc23)ccc1OC1CN(CCCF)C1 | 0.6 | 1.8 | IC50 (Estrogen receptor [4]): 0.9 nM
CC(F)(c1cc(F)ccc1-c1sc2c(ccc3[nH]ncc32)c1Oc1ccc(NC2CN(CCCF)C2)cc1)C(F)(F)F (centres undefined) | 1.7 | 6.6 | 
